Results reported in PubChem BioAssay AID1549 (Sanford-Burnham Center for Chemical Genomics, 2009).
Active and inactive are the calls of the source. The rule behind the calls is not given here.

Biological target: Influenza A virus M2 proton channel (A/TW/4845/1999 H1N1)
Assay: M2 proton channel binding, NMR based, influenza A virus H1N1 strain (AID 1549)
Conditions: NMR binding screen, M2 protein

Row | Compound | Kd
1 | CC(=O)Nc1c(Cl)cnn(-c2ccccc2)c1=O | > 4 mM (inactive)
2 | CC[C@H]1CN2CCC1C[C@@H]2[C@@H](O)c1ccnc2ccc(OC)cc12 (some centres not stated) | > 4 mM (inactive)
3 | NCc1ccccc1N1CCOCC1 | > 4 mM (inactive)
4 | O=C(Nc1ccc2c(c1)OCO2)c1ccc(=O)[nH]n1 | > 4 mM (inactive)
5 | O=C1CSC(=O)N1CNc1ccccc1 | > 4 mM (inactive)
6 | O=c1[nH]nc(Cc2ccccn2)c2ccccc12 | > 4 mM (inactive)
7 | OCc1ccc2c(c1)OCCO2 | > 4 mM (inactive)
8 | CN1CCN(C(=O)c2cc(-c3ccccc3)on2)CC1 | > 4 mM (inactive)
9 | Cn1cnnc1SCCCNC(=O)Nc1ncccn1 | > 4 mM (inactive)
10 | NC(=O)CCN1C(=O)c2ccccc2C1=O | > 4 mM (inactive)
11 | O=C(NC1CC1)c1ccccc1[N+](=O)[O-] | > 4 mM (inactive)
12 | O=C(Cc1ccc(F)cc1)Nc1ncccn1 | > 4 mM (inactive)
13 | S=C(NCc1ccco1)NN1CCOCC1 | > 4 mM (inactive)
14 | O=c1c(-c2cc(O)c(O)c(O)c2)coc2cc(O)c(O)c(O)c12 | > 4 mM (inactive)
15 | CCN1CC2(C)CC[C@H](OC)[C@]34C2[C@H](O)C2(OCO[C@@]25C[C@H](OC)[C@H]2C[C@]3(O)C5[C@H]2O)C14 | > 4 mM (inactive)
16 | CCNC(=S)N1CCCC(C(N)=O)C1 (configuration not stated) | > 4 mM (inactive)
17 | NC(=O)c1cc2c(n(-c3ccccc3)c1=O)CCCC2=O | > 4 mM (inactive)
18 | O=C(O)c1ccc2c(c1)OCO2 | > 4 mM (inactive)
19 | Cc1cc(=O)[nH]c(N)n1 | > 4 mM (inactive)
20 | C[C@@H](N)[C@@H](O)c1ccccc1 | > 4 mM (inactive)
21 | c1ccc(CCNc2ncnc3nc[nH]c23)cc1 | > 4 mM (inactive)
22 | Nc1nc(N)nc(N2C(=O)c3ccccc3C2=O)n1 | > 4 mM (inactive)
23 | COc1cccc(-c2nc(-c3ccccn3)no2)c1OC | > 4 mM (inactive)
24 | COc1ccc2[nH]cc(CCNC(C)=O)c2c1 | > 4 mM (inactive)

Row | Compound | Kd
25 | CCNS(=O)(=O)c1ccc(OC)c(C)c1 | > 4 mM (inactive)
26 | O=C1C2CCCCC2C(=O)N1c1nccs1 (configuration not stated) | > 4 mM (inactive)
27 | COc1cc(CNC(=O)CCCC/C=C/C(C)C)ccc1O | > 4 mM (inactive)
28 | COC(=O)C(O)c1ccccc1 (configuration not stated) | > 4 mM (inactive)
29 | O=C(O)c1scc2c1CCCC2 | > 4 mM (inactive)
30 | COC(=O)Cc1cc(=O)n(-c2nc3ccccc3s2)[nH]1 | > 4 mM (inactive)
31 | COC1=CC23CCCN2CCc2cc4c(cc2C3C1O)OCO4 (configuration not stated) | > 4 mM (inactive)
32 | CCNC(CC(=O)Nc1ccc(F)cc1)C(=O)O (configuration not stated) | > 4 mM (inactive)
33 | CN(C(=O)c1cc2cccnc2n(C)c1=O)c1ccccc1 | > 4 mM (inactive)
34 | Cc1ccsc1/C=c1\sc2ncnn2c1=O | > 4 mM (inactive)
35 | Cc1nc2ccccc2c2c1C(=O)N(N)C2=O | > 4 mM (inactive)
36 | NC(=O)CSc1nnc(-c2cccnc2)o1 | > 4 mM (inactive)
37 | O=C(O)C1CCN(S(=O)(=O)c2cccs2)CC1 | > 4 mM (inactive)
38 | C[C@H]1O[C@@H](O[C@H]2[C@@H](O)C[C@H](O[C@H]3[C@@H](O)C[C@H](O[C@H]4CC[C@]5(C)C6C[C@@H](O)[C@]7(C)[C@@H](C8=CC(=O)OC8)CC[C@]7(O)C6CC[C@@H]5C4)O[C@@H]3C)O[C@@H]2C)C[C@H](O)[C@@H]1O (some centres not stated) | > 4 mM (inactive)
39 | CCOC(=O)c1c(C)[nH]c2ccc(O)cc12 | > 4 mM (inactive)
40 | CCn1nnnc1Oc1ccc(Cl)cc1 | > 4 mM (inactive)
41 | CC(C)(O)CC[C@@H](O)[C@](C)(O)C1CC[C@@]2(O)C3=CC(=O)C4C[C@@H](O)[C@@H](O)C[C@]4(C)C3CC[C@]12C (some centres not stated) | > 4 mM (inactive)
42 | Cc1c(N=CN(C)C)c(=O)n(-c2ccccc2)n1C | > 4 mM (inactive)
43 | N#Cc1cnc(N2CCCCC2)nc1N | > 4 mM (inactive)
44 | CCN=Cc1c(O)n(-c2ccccc2C)c(=O)[nH]c1=O | > 4 mM (inactive)
45 | NC(=O)CSCc1ccc(Br)cc1 | > 4 mM (inactive)
46 | CN1CCc2c(sc(N)c2C#N)C1 | > 4 mM (inactive)
47 | O=C(O)C1CC(=O)N(Cc2cccs2)C1 (configuration not stated) | > 4 mM (inactive)
48 | O=C1CCNc2cc3ccccc3cc21 | > 4 mM (inactive)

Row | Compound | Kd
49 | O=S(=O)(Cc1ccc(Cl)cc1)N1CCCC1 | > 4 mM (inactive)
50 | Cc1occc1C(=O)Nc1nnc(-c2ccncc2)s1 | > 4 mM (inactive)
51 | Cc1cccc(N2C(=O)CC(=O)NC2=O)c1 | > 4 mM (inactive)
52 | CC1=C2C(O)C(=O)OC3CC4C(C)(C)C(=O)C=C[C@]4(C)C(CC1)[C@]23C (some centres not stated) | > 4 mM (inactive)
53 | COc1cc(O)ccc1C(C)=O | > 4 mM (inactive)
54 | O=C1NC(=Nc2ccc(O)cc2)S/C1=C/c1ccco1 | > 4 mM (inactive)
55 | c1ccc(-n2cnnc2)nc1 | > 4 mM (inactive)
56 | CC(C)(O)[C@@H]1[C@H]2OC(=O)[C@@H]1[C@]1(O)C[C@H]3O[C@]34C(=O)O[C@H]2[C@]14C | > 4 mM (inactive)
57 | COc1nc(-c2ccccc2)ccc1-c1noc(C)n1 | > 4 mM (inactive)
58 | O=C(C1CCNCC1)N1CCCCCC1 | > 4 mM (inactive)
59 | c1csc(-c2nn[nH]n2)c1 | > 4 mM (inactive)
60 | CCOC(=O)CC1Sc2ccccc2NC1=S (configuration not stated) | > 4 mM (inactive)
61 | O=C(Nc1ccon1)c1cccc(Cl)c1 | > 4 mM (inactive)
62 | Nc1cccc2nsnc12 | > 4 mM (inactive)
63 | CS(=O)(=O)N1CCN(C(=O)c2ccccc2F)CC1 | > 4 mM (inactive)
64 | Nc1nc(O)c(C2=c3cc(Cl)ccc3=NC2=O)s1 | > 4 mM (inactive)
65 | O=C(O)CNS(=O)(=O)c1cccs1 | > 4 mM (inactive)
66 | O=C(c1ccco1)N1CCNCC1 | > 4 mM (inactive)
67 | O=C(O)c1sccc1-n1cccc1 | > 4 mM (inactive)
68 | O=c1[nH]c(CN2CCN(CCO)CC2)nc2ccccc12 | > 4 mM (inactive)
69 | Nc1ccccc1C(=O)CC(N)C(=O)O (configuration not stated) | > 4 mM (inactive)
70 | COc1ccc2c(c1)OCC(Cc1ccc(OC)c(OC(C)=O)c1)C2=O (configuration not stated) | > 4 mM (inactive)
71 | COC(=O)[C@@H]1OC(=O)C2OC23[C@@]1(C)CCC1[C@]2(C)C(C[C@@H](O)[C@]13C)C(C)(C)[C@H](OC(C)=O)C[C@@H]2OC(C)=O (some centres not stated) | > 4 mM (inactive)
72 | CC(=O)OC1CCC2(C)C3CC(=O)C4(C)C(CC5OC6(CCC(C)CO6)[C@@H](C)C54)C3CC[C@H]2C1 (some centres not stated) | > 4 mM (inactive)

Row | Compound | Kd
73 | CC(C)=CC(=O)Nc1ccccc1C(N)=O | > 4 mM (inactive)
74 | C=CCCCCCCCCCCCC(O)CC(O)CO (configuration not stated) (tested in a mixture with another compound) | > 4 mM (inactive)
75 | O=c1cc(-c2ccccc2)oc2cc(O)c(O)c(O)c12 | > 4 mM (inactive)
76 | CCOC(=O)c1c(C)n([O-])c2ccccc2[n+]1=O | > 4 mM (inactive)
77 | O=C(N1CCOCC1)N1CCN(c2ccccn2)CC1 | > 4 mM (inactive)
78 | CN(C)c1ccc2c(=O)[nH][nH]c(=O)c2c1 | > 4 mM (inactive)
79 | CC(=O)N1CCc2cc(NC(=O)c3ccc(C)cc3)ccc21 | > 4 mM (inactive)
80 | O=C(O)C1CSC(c2cc3ccccc3nc2Cl)N1 (configuration not stated) | > 4 mM (inactive)
81 | COc1cc(O)c(C(=O)c2ccccc2)cc1O | > 4 mM (inactive)
82 | CC(C)(CO)NC(=O)c1ccccc1F | > 4 mM (inactive)
83 | Cn1[nH]c(C(F)(F)F)cc1=O | > 4 mM (inactive)
84 | NCc1nc2ccccc2s1 | > 4 mM (inactive)
85 | NC(C(=O)O)C(O)c1ccccc1 (configuration not stated) | > 4 mM (inactive)
86 | C=CC(C1=CC(=O)C(OC)=CC1=O)c1ccccc1 (configuration not stated) | > 4 mM (inactive)
87 | O=C1CNC(=O)N1c1cccc(Cl)c1 | > 4 mM (inactive)
88 | NC(=O)Cc1nc(-c2ccccc2)cs1 | > 4 mM (inactive)
89 | CCN1CCN(CCCNc2ncnc3nc[nH]c23)CC1 | > 4 mM (inactive)
90 | CC1(C)CC23C(=O)CCC(O)C2(C)CCC13 (configuration not stated) | > 4 mM (inactive)
91 | Cc1c(CO)cnn1-c1ccccc1 | > 4 mM (inactive)
92 | Cc1n[nH]c(C)c1-c1ccccc1C(=O)O | > 4 mM (inactive)
93 | CC(=O)Oc1cc2c(C(C)=O)coc2c2ccccc12 | > 4 mM (inactive)
94 | COc1ccc(CN2CCOCC2)c(C)c1C | > 4 mM (inactive)
95 | O=C(O)c1ccc(N2CCOCC2)nc1 | > 4 mM (inactive)
96 | O=C(O)Cn1c(=O)sc2ccccc21 | > 4 mM (inactive)

Row | Compound | Kd
97 | Cc1nn2c(nc1=O)SCC2(O)c1ccccc1 (configuration not stated) | > 4 mM (inactive)
98 | Cc1cc(C)n(-c2nc(C)nc(N)n2)n1 | > 4 mM (inactive)
99 | CC1(C)CC2C1CC[C@]1(C)CCC3C(C(=O)O)CC(=O)O[C@@]32C1 (some centres not stated) | > 4 mM (inactive)
100 | CNC(C)[C@H](O)c1ccccc1 (some centres not stated) | > 4 mM (inactive)
101 | O=c1oc(-c2ccccc2)nc2c1cnn2-c1ccccc1 | > 4 mM (inactive)
102 | O=c1[nH]c2ccc(S(=O)(=O)NC3CC3)cc2[nH]1 | > 4 mM (inactive)
103 | Nn1cnn2c(SCc3ccccc3)nnc12 | > 4 mM (inactive)
104 | Cn1cnc2ccc([N+](=O)[O-])cc2c1=O | > 4 mM (inactive)
105 | Cc1ccc(C(C)C)cc2c(C)ccc1-2 | > 4 mM (inactive)
106 | c1cc2n(c1)CCNC2c1ccncc1 (configuration not stated) | > 4 mM (inactive)
107 | O=C(O)c1csc(-c2ccccc2)n1 | > 4 mM (inactive)
108 | Cn1cnnc1SCC(=O)Nc1ccccc1 | > 4 mM (inactive)
109 | COC(=O)c1ccc2snnc2c1 | > 4 mM (inactive)
110 | CC1(C)C2CC(=O)[C@]3(C)C(CC[C@@]4(C)[C@H](c5ccoc5)OC(=O)[C@H]5O[C@]543)[C@@]2(C)C(=O)C[C@H]1O (some centres not stated) | > 4 mM (inactive)
111 | c1ccc(CCc2nc(-c3ccncc3)no2)cc1 | > 4 mM (inactive)
112 | Clc1ccc(-n2ccnc2)nn1 | > 4 mM (inactive)
113 | CCOc1ccc(Cl)cc1S(=O)(=O)N1CCCC1 | > 4 mM (inactive)
114 | N#CCSc1nc(-c2ccccc2)cs1 | > 4 mM (inactive)
115 | C[C@@H]1CC[C@H]2[C@@H](C)C(=O)O[C@@H]3OC4(C)CC[C@@H]1[C@]32OO4 | > 4 mM (inactive)
116 | CN1C(=O)/C(=C\c2ccc[nH]2)SC1=S | > 4 mM (inactive)
117 | Cc1cc(SCC(=O)c2ccccc2)nc(=O)[nH]1 | > 4 mM (inactive)
